Measurements: patent US20250228855A1, “PYRAZINAMIDE COMPOUNDS” (The General Hospital Corporation, priority 2022, published 2025)
Structures can show the parent of a compound that is named as a salt. Where two headings read alike, the source gives them in different places. Marks after values point to notes of the source that are not given here.

Key:
PfcProRS = PfcProRS (Plasmodium falciparum, UniProt Q8I5R7); assay: TR-FRET ligand displacement assay with tracer MAT379, PfcProRS; type: binding
HsProRS = molecular target: T1, HsProRS (Homo sapiens, UniProt P07814); assay: TR-FRET ligand displacement assay with tracer MAT379, HsProRS; type: binding
T1 sequence (P07814 1007-1512 limits assumed): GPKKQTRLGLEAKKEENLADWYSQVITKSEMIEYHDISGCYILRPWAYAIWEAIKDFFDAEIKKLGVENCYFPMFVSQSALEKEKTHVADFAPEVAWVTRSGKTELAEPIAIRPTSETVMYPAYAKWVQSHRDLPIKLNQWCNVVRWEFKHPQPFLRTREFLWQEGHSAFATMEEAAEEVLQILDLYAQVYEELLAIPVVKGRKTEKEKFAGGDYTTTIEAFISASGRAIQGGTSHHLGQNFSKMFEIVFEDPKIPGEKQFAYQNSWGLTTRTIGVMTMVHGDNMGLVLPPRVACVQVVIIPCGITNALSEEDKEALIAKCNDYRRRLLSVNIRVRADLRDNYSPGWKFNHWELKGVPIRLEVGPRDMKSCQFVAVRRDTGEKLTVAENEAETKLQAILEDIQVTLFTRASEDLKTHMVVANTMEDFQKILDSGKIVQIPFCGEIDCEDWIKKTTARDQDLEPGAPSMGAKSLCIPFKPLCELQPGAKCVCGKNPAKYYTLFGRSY

P. falciparum Dd2-2D4 = assay: P. falciparum asexual blood stage growth assay, wild-type Dd2-2D4
Experimental: (§1) Asexual blood stage (ABS) P. falciparum parasites were treated with test compounds at varying concentrations for 72 h, followed by quantification of parasite growth by SYBR Green staining.
(§2) P. falciparum Asexual Blood Stage Growth Assay: This assay was performed as previously described.

[1] = tested on: halofuginone-induced (HFG-induced) P. falciparum; assay: P. falciparum asexual blood stage growth assay, halofuginone-induced parasites; settings: Plasmodium falciparum
Experimental: as §1, §2

[2] = PfcProRS (KD [nM]) +proline, 100 μM Pro
[3] = absence of proline, read-out: KD for PfcProRS
[4] = absence of proline, read-out: KD for HsProRS
[5] = Plasmodium falciparum, DD2, 72 h, read-out: Dd2 (EC50 [nM]) wt
[6] = DD2, 72 h, read-out: Dd2 (EC50 [nM]) Halofuginone-induced
[7] = no proline, no ATP, read-out: HsProRS (KD [nM]) −
[8] = read-out: HsProRS (KD [nM]) +proline, 100 μM Pro
[9] = no proline, no ATP, read-out: PfcProRS (KD [nM]) −
[10] = Plasmodium falciparum, DD2, read-out: EC50 against Dd2-2D4 wildtype parasites
[11] = read-out: EC50 in halofuginone-induced parasites

Chain of PfcProRS (Q8I5R7 whole entry): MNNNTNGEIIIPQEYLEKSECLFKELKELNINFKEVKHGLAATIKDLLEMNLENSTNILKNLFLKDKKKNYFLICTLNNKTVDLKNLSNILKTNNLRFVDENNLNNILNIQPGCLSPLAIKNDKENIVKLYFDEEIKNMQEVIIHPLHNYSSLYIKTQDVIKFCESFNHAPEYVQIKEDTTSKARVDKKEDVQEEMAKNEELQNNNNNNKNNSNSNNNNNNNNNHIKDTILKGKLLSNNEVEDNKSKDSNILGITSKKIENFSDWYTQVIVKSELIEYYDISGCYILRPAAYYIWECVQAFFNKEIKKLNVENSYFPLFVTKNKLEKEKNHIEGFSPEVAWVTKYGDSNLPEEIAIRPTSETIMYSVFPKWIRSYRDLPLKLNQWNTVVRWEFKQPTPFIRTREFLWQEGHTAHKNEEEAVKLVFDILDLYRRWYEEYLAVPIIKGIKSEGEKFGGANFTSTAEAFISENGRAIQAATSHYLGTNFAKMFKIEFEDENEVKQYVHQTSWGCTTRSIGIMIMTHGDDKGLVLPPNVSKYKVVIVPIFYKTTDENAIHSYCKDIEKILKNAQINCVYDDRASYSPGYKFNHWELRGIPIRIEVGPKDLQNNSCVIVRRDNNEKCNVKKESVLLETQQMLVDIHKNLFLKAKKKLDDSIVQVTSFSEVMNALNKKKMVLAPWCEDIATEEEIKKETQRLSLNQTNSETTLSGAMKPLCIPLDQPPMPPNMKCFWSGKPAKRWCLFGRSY

Structure (SMILES) | Kd (PfcProRS; [2]) [nM] | Kd (HsProRS) [nM] | EC50 (P. falciparum Dd2-2D4; [5]) [nM] | EC50 [1, 6] [nM] | Kd (HsProRS; [7]) [nM] | Kd (HsProRS; [8]) [nM] | Kd (PfcProRS; [9]) [nM] | further results
O=C(CCCCCNC(=S)NC1CCCCC1)NCC1CCN(C(=O)Nc2nccnc2C(=O)NC2Cc3ccccc3C2)CC1 [MAT518] | 288 | > 5090 | 1820 | 1500 | – | – | – | selectivity for PfcProRS compared to HsProRS (PfcProRS): ~7 fold; Kd (PfcProRS; [3]): 372 nM; Kd (HsProRS; [4]): 2760 nM
O=C(CCCCCNC(=O)Nc1ccccc1)NC1CCN(C(=O)Nc2nccnc2C(=O)NC2Cc3ccccc3C2)CC1 [MAT515] | 46.6 | 504 | 381 | 3300 | – | – | – | Kd (PfcProRS; [3]): 70.4 nM; Kd (HsProRS; [4]): 169 nM
O=C(NC1Cc2ccccc2C1)c1nccnc1NC(=O)C1(O)CCCCC1 [Compound 15, N-(2,3-dihydro-1H-inden-2-yl)-3-(1-hydroxycyclohexane-1-carboxamido)pyrazine-2-carboxamide] | – | – | 1500 | 3510 | 2700 | 21.8 | – | –
CC(C)(C)OC(=O)N1CCC[C@H](OC(=O)NS(=O)(=O)N2CCN(C(=O)Nc3nccnc3C(=O)NC3Cc4ccccc4C3)CC2)[C@H]1CC(=O)Cn1cnc2cc(Br)c(Cl)cc2c1=O (relative stereo) [Compound 37, tert-butyl trans-2-(3-(7-bromo-6-chloro-4-oxoquinazolin-3(4H)-yl)-2-oxopropyl)-3-((((4-((3-((2,3-dihydro-1H-inden-2-yl)carbamoyl)pyrazin-2-yl)carbamoyl)piperazin-1-yl)sulfonyl)carbamoyl)oxy)piperidine-1-carboxylate] | 175 | – | – | 7150 | – | – | 246 | percent growth at 10 μM (Dd2 wt) (P. falciparum Dd2-2D4; 10 μM, compound had <50% growth inhibition): 59% †
O=C(NC1Cc2ccccc2C1)c1nccnc1NC(=O)N1CCC(CCO)CC1 [Compound 12, N-(2,3-dihydro-1H-inden-2-yl)-3-(4-(2-hydroxyethyl)piperidine-1-carboxamido)pyrazine-2-carboxamide] | 339 | – | 153 | 6350 | 687 | 150 | 515 | –
NCCCCCC(=O)NC1CCN(C(=O)Nc2nccnc2C(=O)NC2Cc3ccccc3C2)CC1 [Compound 42, 3-(4-(6-aminohexanamido)piperidine-1-carboxamido)-N-(2,3-dihydro-1H-inden-2-yl)pyrazine-2-carboxamide dihydrochloride] | 295 | – | 3120 | 9080 | – | 780 | 433 | Kd (HsProRS; read-out: HsProRS (KD [nM]) −): 674 nM
O=C(C[C@H]1NCCC[C@@H]1O)Cn1cnc2cc(Br)c(Cl)cc2c1=O [halofuginone(1), halofuginone, reference compound] | > 3000 | 2040 | 0.519 | 19.2 | 1160 | – | > 3000 | Kd (PfcProRS; PfcProRS (KD [nM]) +ATP, 500 μM ATP): 0.503 nM; Kd (HsProRS; HsProRS (KD [nM]) +ATP, +ATP): 0.225 nM
CC(C)(C)OC(=O)NCC1CCN(C(=O)Nc2nccnc2C(=O)NC2Cc3ccccc3C2)CC1 [Compound 9, tert-butyl ((1-((3-((2,3-dihydro-1H-inden-2-yl)carbamoyl)pyrazin-2-yl)carbamoyl)piperidin-4-yl)methyl)carbamate] | 353 | > 5090 | 6570 | 7530 | 2510 | – | 382 | –
Nc1ncnc2c1ncn2[C@@H]1O[C@H](COS(=O)(=O)NC(=O)[C@@H]2CCCN2)[C@@H](O)[C@H]1O [ProSA (25), 5′-O—[N-(L-Prolyl)-sulfamoyl]adenosine, reference compound] | – | – | 151 | 137 | – | – | – | –
CC(C)(C)OC(=O)NCCCCCC(=O)NC1CCN(C(=O)Nc2nccnc2C(=O)NC2Cc3ccccc3C2)CC1 [Compound 41, tert-butyl (6-((1-((3-((2,3-dihydro-1H-inden-2-yl)carbamoyl)pyrazin-2-yl)carbamoyl)piperidin-4-yl)amino)-6-oxohexyl)carbamate] | 182 | – | 2110 | 6910 | 139 | 561 | 227 | –
O=C(NS(=O)(=O)N1CCN(C(=O)Nc2nccnc2C(=O)NC2Cc3ccccc3C2)CC1)O[C@H]1CCCNC1 [MAT445, (S)-piperidin-3-yl ((4-((3-((2,3-dihydro-1H-inden-2-yl)carbamoyl)pyrazin-2-yl)carbamoyl)piperazin-1-yl)sulfonyl)carbamate] | – | – | 1160 | 7620 | – | – | – | Kd (PfcProRS; [3]): 1110 nM; EC50 (P. falciparum Dd2-2D4; [10]): 1160 nM; EC50 [1, 11]: > 10000 nM
O=C(NS(=O)(=O)N1CCN(C(=O)Nc2nccnc2C(=O)NC2Cc3ccccc3C2)CC1)OC[C@@H]1CCCN1 [MAT457, (S)-pyrrolidin-2-ylmethyl ((4-((3-((2,3-dihydro-1H-inden-2-yl)carbamoyl)pyrazin-2-yl)carbamoyl)piperazin-1-yl)sulfonyl)carbamate hydrochloride] | 118 | – | 968 | 6570 | – | – | – | Kd (PfcProRS; [3]): 152 nM; Kd (HsProRS; KD for HsProRS): 9.71 nM; Kd (HsProRS; KD for HsProRS in presence of 100 μM proline, 100 μM proline): 16.3 nM; EC50 (P. falciparum Dd2-2D4; [10]): 968 nM; EC50 [1, 11]: > 10000 nM
CC(C)(C)OC(=O)N1CCC[C@@H](OC(=O)NS(=O)(=O)N2CCN(C(=O)Nc3nccnc3C(=O)NC3Cc4ccccc4C3)CC2)[C@@H]1CC(O)Cn1cnc2cc(Br)c(Cl)cc2c1=O (stereo partly drawn) [MAT582, tert-butyl (2S,3R)-2-(3-(7-bromo-6-chloro-4-oxoquinazolin-3(4H)-yl)-2-hydroxypropyl)-3-((((4-((3-((2,3-dihydro-1H-inden-2-yl)carbamoyl)pyrazin-2-yl)carbamoyl)piperazin-1-yl)sulfonyl)carbamoyl)oxy)piperidine-1-carboxylate] | 2740 | 8.42 | 8660 | > 10000 | 265 | – | 2490 | –
O=C(CCCCCNC(=O)Nc1ccccc1)NCC1CCN(C(=O)Nc2nccnc2C(=O)NC2Cc3ccccc3C2)CC1 [MAT516] | – | – | 636 | 4760 | 402 | 159 | 94.1 | Kd (PfcProRS; read-out: PfcProRS (KD [nM]) +proline, 100 μM Pro): 60.8 nM
O=C(NS(=O)(=O)N1CCN(C(=O)Nc2nccnc2C(=O)NC2Cc3ccccc3C2)CC1)O[C@@H]1CCCNC1 [MAT447, (R)-piperidin-3-yl ((4-((3-((2,3-dihydro-1H-inden-2-yl)carbamoyl)pyrazin-2-yl)carbamoyl)piperazin-1-yl)sulfonyl)carbamate] | – | – | 6250 | 6990 | – | – | – | Kd (PfcProRS; [3]): 2460 nM; EC50 (P. falciparum Dd2-2D4; [10]): 6250 nM; EC50 [1, 11]: > 10000 nM
C[C@@H]1CCC[C@H](C)N1C(=O)Nc1nccnc1C(=O)NC1Cc2ccccc2C1 [Compound 19, N-(2,3-dihydro-1H-inden-2-yl)-3-(cis-2,6-dimethylpiperidine-1-carboxamido)pyrazine-2-carboxamide] | 1180 | – | > 10000 | 8590 | > 8720 | 1320 | > 2860 | –
O=C(NS(=O)(=O)NCC1CCN(C(=O)Nc2nccnc2C(=O)NC2Cc3ccccc3C2)CC1)OCCn1cnc2ccccc2c1=O [MAT514, 2-(4-oxoquinazolin-3(4H)-yl)ethyl (N-((1-((3-((2,3-dihydro-1H-inden-2-yl)carbamoyl)pyrazin-2-yl)carbamoyl)piperidin-4-yl)methyl)sulfamoyl)carbamate] | 32.6 | 372 | 4560 | 7040 | – | – | – | Kd (PfcProRS; [3]): 35.2 nM; Kd (HsProRS; [4]): 277 nM; IC50 (P. falciparum Dd2-2D4; Plasmodium falciparum, DD2, read-out: IC50 for Dd2-2D4): 4560 nM
CNc1nccnc1C(=O)NC1Cc2ccccc2C1 [Compound 46, N-(2,3-dihydro-1H-inden-2-yl)-3-(methylamino)pyrazine-2-carboxamide] | > 2180 | > 5090 | 8110 | – | > 8720 | – | > 2860 | –
Nc1nccnc1C(=O)NC1CCCCC1 [Compound 48, 3-amino-N-cyclohexylpyrazine-2-carboxamide] | > 2180 | > 5090 | 8740 | – | > 8720 | – | > 2860 | –
NC1(C(=O)Nc2nccnc2C(=O)NC2Cc3ccccc3C2)CCCCC1 [Compound 17, 3-(1-aminocyclohexane-1-carboxamido)-N-(2,3-dihydro-1H-inden-2-yl)pyrazine-2-carboxamide] | 131 | – | 5790 | – | 4430 | 25.5 | 1390 | –
O=C(NC1Cc2ccccc2C1)c1nccnc1NC(=O)N1CCC(CO)CC1 [Compound 11, N-(2,3-dihydro-1H-inden-2-yl)-3-(4-(hydroxymethyl)piperidine-1-carboxamido)pyrazine-2-carboxamide] | – | – | 712 | – | 265 | – | 299 | –
